According to patent US10513493B2, “Cyclopropylamines as LSD1 inhibitors” (Incyte Corporation, priority 2014, dated 2019):

Biological target: LSD-1 enzyme (Homo sapiens (Human), UniProt O60341)
Experiment: LANCE LSD1/KDM1A demethylase assay (LSD1 histone demethylase biochemical assay)
Details: 1 nM LSD-1 enzyme, 1 hour preincubation at 25° C., 0.4 μM Biotin-labeled Histone H3 peptide substrate
Protocol: Example A: LSD1 histone demethylase biochemical assay
LANCE LSD1/KDM1A demethylase assay—10 μL of 1 nM LSD-1 enzyme (ENZO BML-SE544-0050) in the assay buffer (50 mM Tris, pH 7.5, 0.01% Tween-20, 25 mM NaCl, 5 mM DTT) were preincubated for 1 hour at 25° C. with 0.8 μL compound/DMSO dotted in black 384 well polystyrene plates. Reactions were started by addition of 10 μL of assay buffer containing 0.4 μM Biotin-labeled Histone H3 peptide substrate: ART-K(Me1)-[…]-GGK(Biotin) SEQ ID NO: 1 (AnaSpec 64355) and incubated for 1 hour at 25° C. Reactions were stopped by addition of 10 μL 1× LANCE Detection Buffer (PerkinElmer CR97-100) supplemented with 1.5 nM Eu-anti-unmodified H3K4 Antibody (PerkinElmer TRF0404), and 225 nM LANCE Ultra Streptavidin (PerkinElmer TRF102) along with 0.9 mM Tranylcypromine-HCl (Millipore 616431). After stopping the reactions plates were incubated for 30 minutes and read on a PHERAstar FS plate reader (BMG Labtech).

**Q.** How did the IC50 turn out when `CC(C)NC(=O)c1ccc(N2CC(CN[C@@H]3C[C@H]3c3ccccc3)C2)c(Cl)c1` (relative stereo) [Example 14, 3-Chloro-N-isopropyl-4-(3-{[(trans-2-phenylcyclopropyl)amino]methyl}azetidin-1-yl)benzamide] was run?
**A.** < 100 nM

**Q.** Which IC50 does the source give for `CN(C)C(=O)c1ccc(N2CCC(C)(CN[C@@H]3C[C@H]3c3ccccc3)CC2)cn1` [Example 28, N,N-dimethyl-5-[4-methyl-4-({[(1R,2S)-2-phenylcyclopropyl]amino}methyl)piperidin-1-yl]pyridine-2-carboxamide] here?
**A.** < 100 nM

**Q.** `N#CCC1(CN[C@@H]2C[C@H]2c2ccccc2)CCN(c2ncccc2C(F)(F)F)CC1` (relative stereo) [Example 19, {4-{[(trans-2-Phenylcyclopropyl)amino]methyl}-1-[3-(trifluoromethyl)pyridin-2-yl]piperidin-4-yl}acetonitrile] was tested. Which IC50 did it give?
**A.** < 100 nM

**Q.** Which IC50 does the source give for `CCNC(=O)c1cnc(N2CC(CN[C@@H]3C[C@H]3c3ccccc3)C2)cn1` (relative stereo) [Example 5, N-Ethyl-5-(3-{[(trans-2-phenylcyclopropyl)amino]methyl}azetidin-1-yl)pyrazine-2-carboxamide] here?
**A.** < 100 nM

**Q.** For `N#Cc1cc(F)c(N2CC(CN[C@@H]3C[C@H]3c3ccccc3)C2)c(F)c1` (relative stereo) [Example 2, 3,5-Difluoro-4-[3-({[trans-2-phenylcyclopropyl]amino}methyl)azetidin-1-yl]benzonitrile], which IC50 is on record?
**A.** < 100 nM

**Q.** For `CNC(=O)c1ccc(N2CCC(C)(CN[C@@H]3C[C@H]3c3ccccc3)CC2)cn1` [Example 29, N-methyl-5-[4-methyl-4-({[(1R,2S)-2-phenylcyclopropyl]amino}methyl)piperidin-1-yl]pyridine-2-carboxamide], which IC50 is on record?
**A.** < 100 nM

**Q.** `CC1(CN[C@@H]2C[C@H]2c2ccccc2)CCN(c2ccc(C(=O)O)nc2)CC1` [Example 25, 5-[4-methyl-4-({[(1R,2S)-2-phenylcyclopropyl]amino}methyl)piperidin-1-yl]pyridine-2-carboxylic acid] was tested. Which IC50 did it give?
**A.** < 100 nM

**Q.** For `Cc1nc(N2CC(CN[C@@H]3C[C@H]3c3ccccc3)C2)ccc1C#N` (relative stereo) [Example 4, 2-Methyl-6-[3-({[trans-2-phenylcyclopropyl]amino}methyl)azetidin-1-yl]nicotinonitrile], which IC50 is on record?
**A.** < 100 nM

**Q.** How did the IC50 turn out when `COCC1(CN[C@@H]2C[C@H]2c2ccccc2)CCN(c2ccnc(C(=O)O)c2)CC1` [Example 23, 4-[4-(methoxymethyl)-4-({[(1R,2S)-2-phenylcyclopropyl]amino}methyl)piperidin-1-yl]pyridine-2-carboxylic acid] was run?
**A.** < 100 nM

**Q.** How did the IC50 turn out when `Cc1cc(C(=O)NC(C)C)c(F)cc1N1CC(CN[C@@H]2C[C@H]2c2ccccc2)C1` (relative stereo) [Example 12, 2-Fluoro-N-isopropyl-5-methyl-4-(3-{[(trans-2-phenylcyclopropyl)amino]methyl}azetidin-1-yl)benzamide] was run?
**A.** < 100 nM

**Q.** With `Nc1ccnc(N2CCC(N[C@H]3C[C@@H]3c3ccccc3)CC2)n1` [Example 31, 2-(4-{[(1S,2R)-2-phenylcyclopropyl]amino}piperidin-1-yl)pyrimidin-4-amine] as the molecule, how does the IC50 read?
**A.** 100 to 500 nM

**Q.** Which IC50 does the source give for `N#Cc1ccc(N2CC(CN[C@@H]3C[C@H]3c3ccccc3)C2)c(F)c1` (relative stereo) [Example 1, 3-Fluoro-4-[3-({[trans-2-phenylcyclopropyl]amino}methyl)azetidin-1-yl]benzonitrile] here?
**A.** < 100 nM

**Q.** `COCC1(CN[C@@H]2C[C@H]2c2ccccc2)CCN(c2cccc(C(=O)O)n2)CC1` [Example 24, 6-[4-(methoxymethyl)-4-({[(1R,2S)-2-phenylcyclopropyl]amino}methyl)piperidin-1-yl]pyridine-2-carboxylic acid] was tested. Which IC50 did it give?
**A.** < 100 nM

**Q.** Which IC50 does the source give for `CC(C)NC(=O)c1cc(F)c(N2CC(CN[C@@H]3C[C@H]3c3ccccc3)C2)cc1Cl` (relative stereo) [Example 9, 2-Chloro-5-fluoro-N-isopropyl-4-(3-{[(trans-2-phenylcyclopropyl)amino]methyl}azetidin-1-yl)benzamide] here?
**A.** < 100 nM

**Q.** For `O=C(NC1(C(F)(F)F)CC1)c1ccc(N2CC(CN[C@@H]3C[C@H]3c3ccccc3)C2)cn1` (relative stereo) [Example 15, 5-(3-{[(trans-2-Phenylcyclopropyl)amino]methyl}azetidin-1-yl)-N-[1-(trifluoromethyl)cyclopropyl]pyridine-2-carboxamide], which IC50 is on record?
**A.** < 100 nM

**Q.** With `CN1CCN(c2cc(N3CC(CN[C@@H]4C[C@H]4c4ccccc4)C3)ncn2)CC1` (relative stereo) [Example 16, N-({1-[6-(4-Methylpiperazin-1-yl)pyrimidin-4-yl]azetidin-3-yl}methyl)-trans-2-phenylcyclopropanamine] as the molecule, how does the IC50 read?
**A.** < 100 nM

**Q.** Which IC50 does the source give for `CC(C)NC(=O)c1ccc(N2CC(CN[C@@H]3C[C@H]3c3ccccc3)C2)c(F)c1` (relative stereo) [Example 10, 3-Fluoro-N-isopropyl-4-(3-{[(trans-2-phenylcyclopropyl)amino]methyl}azetidin-1-yl)benzamide] here?
**A.** < 100 nM

**Q.** With `COc1cc(N2CC(CN[C@@H]3C[C@H]3c3ccccc3)C2)ccc1C(=O)NC(C)C` (relative stereo) [Example 13, N-Isopropyl-2-methoxy-4-(3-{[(trans-2-phenylcyclopropyl)amino]methyl}azetidin-1-yl)benzamide] as the molecule, how does the IC50 read?
**A.** < 100 nM

**Q.** With `O=C(O)c1cccc(N2CCC(CN[C@@H]3C[C@H]3c3ccccc3)(Cc3ccc(F)cc3)CC2)n1` [Example 20, 6-[4-(4-fluorobenzyl)-4-({[(1R,2S)-2-phenylcyclopropyl]amino}methyl)piperidin-1-yl]pyridine-2-carboxylic acid] as the molecule, how does the IC50 read?
**A.** < 100 nM

**Q.** How did the IC50 turn out when `O=C(O)C1(c2ccc(N3CCC(CN[C@@H]4C[C@H]4c4ccccc4)(Cc4ccc(F)cc4)CC3)cc2)CC1` [Example 22, 1-{4-[4-(4-fluorobenzyl)-4-({[(1R,2S)-2-phenylcyclopropyl]amino}methyl)piperidin-1-yl]phenyl}cyclopropanecarboxylic acid] was run?
**A.** < 100 nM

**Q.** With `O=C(O)c1ccc(N2CCC(CN[C@@H]3C[C@H]3c3ccccc3)(Cc3ccc(F)cc3)CC2)cn1` [Example 21, 5-[4-(4-fluorobenzyl)-4-({[(1R,2S)-2-phenylcyclopropyl]amino}methyl)piperidin-1-yl]pyridine-2-carboxylic acid] as the molecule, how does the IC50 read?
**A.** < 100 nM

**Q.** For `Cn1cc(N2CC(CN[C@@H]3C[C@H]3c3ccccc3)C2)cn1` (relative stereo) [Example 17, trans-N-{[1-(1-Methyl-1H-pyrazol-4-yl)azetidin-3-yl]methyl}-2-phenylcyclopropanamine], which IC50 is on record?
**A.** < 100 nM

**Q.** Which IC50 does the source give for `CC(C)NC(=O)c1cc(F)c(N2CC(CN[C@@H]3C[C@H]3c3ccccc3)C2)cc1F` (relative stereo) [Example 3, 2,5-Difluoro-N-isopropyl-4-(3-{[(trans-2-phenylcyclopropyl)amino]methyl}azetidin-1-yl)benzamide] here?
**A.** < 100 nM

**Q.** `CC(C)NC(=O)c1cc(F)c(N2CC(CN[C@@H]3C[C@H]3c3ccccc3)C2)c(F)c1` (relative stereo) [Example 6, 3,5-Difluoro-N-isopropyl-4-(3-{[(trans-2-phenylcyclopropyl)amino]methyl}azetidin-1-yl)benzamide] was tested. Which IC50 did it give?
**A.** < 100 nM

**Q.** How did the IC50 turn out when `CC(C)NC(=O)c1c(F)cc(N2CC(CN[C@@H]3C[C@H]3c3ccccc3)C2)cc1F` (relative stereo) [Example 7, 2,6-Difluoro-N-isopropyl-4-(3-{[(trans-2-phenylcyclopropyl)amino]methyl}azetidin-1-yl)benzamide] was run?
**A.** < 100 nM

**Q.** For `Nc1ccnc(N2CCC(N[C@@H]3C[C@H]3c3ccccc3)CC2)n1` [Example 30, 2-(4-{[(1R,2S)-2-phenylcyclopropyl]amino}piperidin-1-yl)pyrimidin-4-amine], which IC50 is on record?
**A.** < 100 nM

**Q.** `CC1(CN[C@@H]2C[C@H]2c2ccccc2)CCN(c2ccnc(C(=O)O)c2)CC1` [Example 27, 4-[4-methyl-4-({[(1R,2S)-2-phenylcyclopropyl]amino}methyl)piperidin-1-yl]pyridine-2-carboxylic acid] was tested. Which IC50 did it give?
**A.** < 100 nM

**Q.** For `CC(C)NC(=O)c1ccc(N2CC(CN[C@@H]3C[C@H]3c3ccccc3)C2)c(F)c1F` (relative stereo) [Example 8, 2,3-Difluoro-N-isopropyl-4-(3-{[(trans-2-phenylcyclopropyl)amino]methyl}azetidin-1-yl)benzamide], which IC50 is on record?
**A.** < 100 nM

**Q.** How did the IC50 turn out when `CC(C)NC(=O)c1ccc(N2CC(CN[C@@H]3C[C@H]3c3ccccc3)C2)cc1F` (relative stereo) [Example 11, 2-Fluoro-N-isopropyl-4-(3-{[(trans-2-phenylcyclopropyl)amino]methyl}azetidin-1-yl)benzamide] was run?
**A.** < 100 nM

**Q.** `CC1(CN[C@@H]2C[C@H]2c2ccccc2)CCN(c2cccc(C(=O)O)n2)CC1` [Example 26, 6-[4-methyl-4-({[(1R,2S)-2-phenylcyclopropyl]amino}methyl)piperidin-1-yl]pyridine-2-carboxylic acid] was tested. Which IC50 did it give?
**A.** < 100 nM

**Q.** With `N#CCC1(CN[C@@H]2C[C@H]2c2ccccc2)CCN(c2cccc(Cl)c2C#N)CC1` (relative stereo) [Example 18, 2-Chloro-6-(4-(cyanomethyl)-4-{[(trans-2-phenylcyclopropyl)amino]methyl}piperidin-1-yl)benzonitrile] as the molecule, how does the IC50 read?
**A.** < 100 nM
